This is an account of results in ChEMBL document CHEMBL1201862, “PubChem BioAssay data set” (2004).

What all share (assay): NCI-60 cell line screen, 48 h
For experiment [1], the system named is HCT-15.
The subject of experiment [2] is LOX IMVI.
For experiment [3], the system named is SR.
In experiment [4] the test system is NCI-H23.
Experiment [5] relates to NCI-H460.
Experiment [6] has as its system MDA-MB-231.
In experiment [7] the test system is SK-MEL-28.
Experiment [8] relates to MOLT-4.
The subject of experiment [9] is OVCAR-8.
Experiment [10] has as its system EKVX.
The subject of experiment [11] is HL-60.
In experiment [12] the test system is HOP-92.
Experiment [13] relates to 786-0.
The test system of experiment [14] is PC-3.
Experiment [15] deals with SNB-19.
The test system of experiment [16] is NCI-H522.
The subject of experiment [17] is DU-145.
Experiment [18] relates to RPMI-8226.
For experiment [19], the system named is Malme-3M.
In experiment [20] the test system is Hs-578T.

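Method: 48-hour compound exposure of cells in 96-well plates, five concentrations, linear interpolation of endpoints. GI50 is the concentration that inhibits growth by half.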 Calls of active or inactive are those of the source. Rule as the data show it: active = GI50 up to about 1.1 µM and inactive = higher.

As for `Cc1cc(Cc2c(F)c(F)c(C(c3cc(C)no3)c3c(F)c(F)c(F)c(F)c3F)c(F)c2F)on1` (stereo not drawn), the GI50 is 14.2 µM in experiment [1]; > 46.1 µM (inactive) in experiment [2]; > 25.7 µM (inactive) in experiment [3]; > 100 µM (inactive) in experiment [4]; 6.41 µM (inactive) in experiment [5]; > 100 µM (inactive) in [6]. In addition, the GI50 in [7] is > 38.8 µM (inactive); in [8], 17.1 µM (inactive); in [9] it was > 100 µM (inactive); in [10], > 100 µM (inactive); in experiment [11], 5.13 µM (inactive); in experiment [12] it was > 100 µM (inactive). Further, the GI50 was > 100 µM (inactive) in [13]; 69.5 µM (inactive) in experiment [14]; > 100 µM (inactive) in [15]; 23.9 µM (inactive) in experiment [16]; > 100 µM (inactive) in experiment [17]; 33.5 µM (inactive) in experiment [18]. Moreover, in [19], the GI50 was > 100 µM (inactive).
With `COCCOC(=O)NCn1cc(-c2ccccc2)nn1`, the GI50 in experiment [1] is above 100 µM; in experiment [2], > 100 µM (inactive); in [3], > 100 µM (inactive); in experiment [4] it was > 100 µM (inactive); in experiment [5], > 100 µM (inactive); in experiment [6], > 100 µM (inactive). For the same molecule, the GI50 in experiment [7], in [8], in [9], in [10], in experiment [11] and in experiment [12] was > 100 µM (inactive) each time. Also, the GI50 in experiment [13], in [14], in experiment [15], in experiment [16], in experiment [17] and in [18] was > 100 µM (inactive) in each case. In experiment [19], the GI50 is > 100 µM (inactive).
In the case of `COc1cc(C2c3cc4c(cc3C3OC[C@@H]2C3CO)OCO4)cc(OC)c1OC` (stereo partly drawn), the GI50 is 23.3 µM in [1]; 31.2 µM (inactive) in [2]; 34.4 µM (inactive) in [20]; 13.3 µM (inactive) in experiment [3]; 20.3 µM (inactive) in [5]; 38.1 µM (inactive) in [6]. For the same molecule, the GI50 was > 100 µM (inactive) in experiment [7]; 33.1 µM (inactive) in experiment [8]; 40.7 µM (inactive) in experiment [9]; 41.2 µM (inactive) in experiment [10]; 2.66 µM (inactive) in [11]; > 100 µM (inactive) in experiment [12]. The GI50 in [13] was 43.1 µM (inactive); in [14], 49.3 µM (inactive); in experiment [15], 57.3 µM (inactive); in experiment [16], 23 µM (inactive); in [18] it was 38.6 µM (inactive); in [19], 67.6 µM (inactive).
Take `CCOC(=O)CCC(NC(=O)c1ccc(OCc2ccc3nc(OC)c(OC)nc3c2)cc1)C(=O)OCC` (stereo not drawn): the GI50 is 75.5 µM in experiment [1]; 80 µM (inactive) in [2]; 33.9 µM (inactive) in experiment [20]; 45.1 µM (inactive) in experiment [3]; > 100 µM (inactive) in experiment [4]; 22.6 µM (inactive) in [5]. Further, the GI50 in experiment [7] was 44.6 µM (inactive); in experiment [8] it was 22.7 µM (inactive); in experiment [9], > 100 µM (inactive); in experiment [11] it was 31.7 µM (inactive); in experiment [12], 40.9 µM (inactive); in experiment [13], > 100 µM (inactive). Also, the GI50 in experiment [14] was 36.4 µM (inactive); in experiment [15] it was 74.3 µM (inactive); in [16], 24.7 µM (inactive); in experiment [17] it was 69.5 µM (inactive); in experiment [18], 70.8 µM (inactive); in [19] it was 21.4 µM (inactive).
With `NC(=O)CC1OC(=O)Cc2cc3c(c(O)c21)C(=O)c1c(O)cccc1C3=O` (stereo not drawn), the GI50 in [1] is 71.4 µM; in experiment [2] it was > 100 µM (inactive); in experiment [3], 43.7 µM (inactive); in experiment [4], > 100 µM (inactive); in experiment [5], 89.5 µM (inactive); in [6] it was > 100 µM (inactive). Also, the GI50 in [7] was > 100 µM (inactive); in [8], 71.3 µM (inactive); in [9], > 100 µM (inactive); in experiment [10], > 100 µM (inactive); in experiment [11], > 100 µM (inactive); in [12] it was > 100 µM (inactive). Further, the GI50 in experiment [13], in [14], in experiment [15], in [16], in experiment [17] and in [19] was > 100 µM (inactive) in each case.
On to `O=C(c1ccco1)N1CCCN(C(=O)c2ccco2)C1=S`, for which the GI50 was above 100 µM in experiment [1]; > 100 µM (inactive) in experiment [2]; > 100 µM (inactive) in [20]; > 100 µM (inactive) in [4]; > 100 µM (inactive) in experiment [5]; > 100 µM (inactive) in [6]. Also, the GI50 in [7] is > 100 µM (inactive); in experiment [8], > 100 µM (inactive); in experiment [9] it was > 100 µM (inactive); in experiment [10], 2.32 µM (inactive); in [11], > 100 µM (inactive); in experiment [13], > 100 µM (inactive). The GI50 in [14] was 24.4 µM (inactive); in experiment [15], > 100 µM (inactive); in experiment [17], > 100 µM (inactive); in [18], > 100 µM (inactive); in [19], 33 µM (inactive).
`NC(=O)NC(=O)c1cccc(C(=O)NC(N)=O)n1`: the GI50 in [1] is above 100 µM; in experiment [2], > 100 µM (inactive); in experiment [3] it was > 100 µM (inactive); in experiment [4] it was > 100 µM (inactive); in experiment [5], > 100 µM (inactive); in experiment [6], > 100 µM (inactive). For the same molecule, the GI50 in experiment [7] is > 100 µM (inactive); in experiment [8], > 100 µM (inactive); in experiment [9] it was > 100 µM (inactive); in experiment [10], > 100 µM (inactive); in [11], > 100 µM (inactive); in experiment [12] it was 24 µM (inactive). In addition, the GI50 in experiment [13], in experiment [14], in [15], in [16], in experiment [17] and in experiment [18] was > 100 µM (inactive) each time. In addition, the GI50 in experiment [19] was > 100 µM (inactive).
For `O=Cc1c2c(cc3c1CC1(C3)Cc3cc4c(c(C=O)c3C1)CCC4)CCC2`, the GI50 was above 100 µM in experiment [1]; 21.8 µM (inactive) in experiment [2]; 23.1 µM (inactive) in experiment [20]; 35.1 µM (inactive) in [3]; 45.3 µM (inactive) in experiment [4]; 23.5 µM (inactive) in experiment [6]. In addition, the GI50 in [8] is 11.3 µM (inactive); in experiment [9], 47.3 µM (inactive); in experiment [10], 47.3 µM (inactive); in [11] it was 27.5 µM (inactive); in [12], 23 µM (inactive); in experiment [13], > 100 µM (inactive). Also, the GI50 in experiment [14] was 30.3 µM (inactive); in experiment [16] it was 24.9 µM (inactive); in [18], 43.6 µM (inactive); in experiment [19], 27.5 µM (inactive).
As to `CC(C)(C)OC(=O)NCCCC(=O)NC1(c2cc3ccccc3s2)CCCCC1`, the GI50 in experiment [1] is 15.6 µM; in experiment [2] it was 16 µM (inactive); in [20] it was 24.6 µM (inactive); in experiment [3] it was 12.6 µM (inactive); in [4] it was 27.2 µM (inactive); in experiment [5] it was 17 µM (inactive). Also, the GI50 is 14.1 µM (inactive) in [7]; 14.6 µM (inactive) in [8]; 19 µM (inactive) in experiment [9]; 8.26 µM (inactive) in [10]; 6.76 µM (inactive) in [11]; 12.9 µM (inactive) in experiment [12]. Besides, the GI50 was 16.9 µM (inactive) in experiment [13]; 34.8 µM (inactive) in experiment [15]; 13.1 µM (inactive) in experiment [16]; 24.8 µM (inactive) in experiment [17]; 11.7 µM (inactive) in experiment [18]; 16.2 µM (inactive) in experiment [19].
As to `Cc1c(N/C=C(\C#N)C(=O)c2ccc(Cl)cc2)c(=O)n(-c2ccccc2)n1C`, the GI50 in experiment [1] is above 100 µM; in experiment [2] it was > 100 µM (inactive); in experiment [4], > 100 µM (inactive); in experiment [5] it was > 100 µM (inactive); in experiment [6] it was > 100 µM (inactive); in experiment [7], > 100 µM (inactive). Besides, the GI50 in experiment [9] was 91.8 µM (inactive); in experiment [10], > 100 µM (inactive); in experiment [11] it was 38.7 µM (inactive); in experiment [12] it was > 100 µM (inactive); in experiment [13], > 100 µM (inactive); in experiment [14], > 100 µM (inactive). The GI50 in experiment [15] is > 100 µM (inactive); in [16] it was > 100 µM (inactive); in experiment [17] it was > 100 µM (inactive); in experiment [18] it was 34.6 µM (inactive); in experiment [19] it was > 100 µM (inactive).
Turning to `CCOC(=O)C#Cc1ccc(C#CC(=O)OCC)cc1`, the GI50 in [1] is 1.81 µM; in experiment [2], 3.03 µM (inactive); in experiment [20] it was 3.15 µM (inactive); in experiment [3], 0.604 µM (active); in [4], 3.69 µM (inactive); in experiment [5], 5.13 µM (inactive). In addition, the GI50 is 5.11 µM (inactive) in experiment [6]; 2.84 µM (inactive) in [7]; 1.02 µM (active) in experiment [8]; 3.49 µM (inactive) in [9]; 7.74 µM (inactive) in experiment [10]; 2.74 µM (inactive) in experiment [11]. The GI50 in [12] is 5.69 µM (inactive); in experiment [13], 4.35 µM (inactive); in [14], 6.85 µM (inactive); in experiment [15], 5.02 µM (inactive); in [16] it was 2.9 µM (inactive); in experiment [18], 2.56 µM (inactive). Further, the GI50 in experiment [19] is 3.35 µM (inactive).
